pIC50: −log10 of the molar value.
Columns and labels:
[1] = biological target: T1, β-galactosidase (B-GAL) (Escherichia coli, UniProt P00722)
Method: The sensor was incubated with a 5 μL sample for 10 min (a separate paper sensor was made for each concentration) and the B-GAL inhibition tested as outlined above.

[2] = biological target: T1, β-galactosidase (B-GAL); details: EDTA 10 mM; Hg(II), Ag(I) ~2.7 ppm each, other metals ~8 ppm each
[3] = biological target: T1, β-galactosidase (B-GAL); experiment: B-GAL inhibition by heavy metals on bioactive paper sensor (CPRG colour intensity); assay type: biochemical, E. coli; details: for IC50 values (concentration to obtain 50% inhibition of B-GAL) / limits of detection (LODs): paper sensor, 10 min incubation with metal; for limits of detection (LODs): B-GAL/CPRG assay; for inhibition of B-GAL: single metal
Excerpt: The sensors were constructed based on an enzyme, B-GAL vs. substrate, CPRG system with three design strategies: a one-dimensional strategy and two flower shape strategies. In the one-dimensional strategy, a section of Whatman #1 paper was cut into small pieces (0.5×8 cm) on which B-GAL and CPRG were entrapped using sol-gel derived sol gel materials into two different zones (e.g., enzyme or sensing and substrate zones). To prevent leaching the color, a hydrophobic barrier was also introduced on the top (FIG. 1b) of the sensing zone(s) using either wax (by wax printer, Xerox Phaser 8560N) or methyltrimethoxysilane (MTMS) (via piezoelectric inkjet printing).
The sensing zones for all cases were incubated with a drop of contaminated sample for 10 min. The bottom of the paper sensor (FIG. 1b, c) was placed into water while a few drops of water were put at the middle of the sensor (FIG. 1d) for lateral flow chromatography. The color intensity was monitored after 5 min air drying at room temperature. The inkjet printing was done as described elsewhere.^31, 32 After printing, the sensor was allowed to dry for at least 1 h in air at room temperature.
The inhibitory effects of these metals on the solid-phase biosensor were evaluated by measuring the decrease in the color intensity produced by the enzyme-substrate reaction. The sensing region of the paper sensor was first incubated with various concentrations of heavy metals (5 μL) for 10 min after which the paper sensor was allowed for lateral flow chronographic system. The images were taken after 5-10 min air drying at room temperature.
The color intensity of the sensing areas was monitored either by the naked eye, by obtaining a digital image (Canon G11 12 MegaPixel camera operated in automatic mode with no flash and with the macroimaging setting on) or by using an office scanner, with ImageJ™ software being used to analyze the Jpeg images in the latter two cases. The numerical single color coordinates values were obtained using the ImageJ™ color split channel system. All data points represent the average of four replicate experiments and the error bars represent the standard deviations (s.d.) of those points.

T1 sequence (P00722 2-1024): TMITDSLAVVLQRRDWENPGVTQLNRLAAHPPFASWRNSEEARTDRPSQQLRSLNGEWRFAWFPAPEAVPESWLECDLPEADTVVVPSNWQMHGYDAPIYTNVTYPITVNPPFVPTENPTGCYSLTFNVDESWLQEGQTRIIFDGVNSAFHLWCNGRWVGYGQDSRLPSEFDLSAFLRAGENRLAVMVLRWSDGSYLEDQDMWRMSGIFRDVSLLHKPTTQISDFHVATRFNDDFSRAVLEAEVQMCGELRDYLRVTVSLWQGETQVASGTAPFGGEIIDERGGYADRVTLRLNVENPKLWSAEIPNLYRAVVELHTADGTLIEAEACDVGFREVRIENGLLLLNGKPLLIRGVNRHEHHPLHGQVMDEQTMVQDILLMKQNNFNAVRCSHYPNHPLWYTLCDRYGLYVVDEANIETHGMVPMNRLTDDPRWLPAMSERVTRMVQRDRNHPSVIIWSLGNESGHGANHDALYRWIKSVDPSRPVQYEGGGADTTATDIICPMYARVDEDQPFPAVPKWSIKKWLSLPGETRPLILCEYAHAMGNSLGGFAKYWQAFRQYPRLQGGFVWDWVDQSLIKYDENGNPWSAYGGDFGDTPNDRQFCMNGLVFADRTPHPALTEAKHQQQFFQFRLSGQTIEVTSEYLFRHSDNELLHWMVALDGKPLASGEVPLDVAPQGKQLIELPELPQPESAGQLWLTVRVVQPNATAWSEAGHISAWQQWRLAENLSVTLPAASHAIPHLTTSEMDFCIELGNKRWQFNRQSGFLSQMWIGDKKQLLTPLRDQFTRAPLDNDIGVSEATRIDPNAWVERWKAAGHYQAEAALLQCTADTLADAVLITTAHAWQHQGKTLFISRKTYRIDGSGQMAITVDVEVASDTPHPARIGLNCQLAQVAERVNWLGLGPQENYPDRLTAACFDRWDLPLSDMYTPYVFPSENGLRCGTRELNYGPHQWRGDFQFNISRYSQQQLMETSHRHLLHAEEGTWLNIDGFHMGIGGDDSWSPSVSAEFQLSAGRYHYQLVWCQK

Row | Compound | effect of nontoxic metal ion on response vs. concentration of Hg^2+ and limit of detection ([1]; NaCl 10 μM, KCl 100 ppm) | inhibition of B-GAL after inclusion of EDTA [2] | IC50 values (concentration to obtain 50% inhibition of B-GAL) [3] [ppm] | limits of detection (LODs) [3] [ppm] | inhibition of B-GAL ([3]; 0.1 μM) | limit of detection ([1]; Hg^2+ mixed with NaCl (10 μM)) [µM] | pIC50 ([1]; read-out: IC50 value, Hg^2+ mixed with NaCl (10 μM)) | inhibition of B-GAL ([3]; 3 μM) [%]
1 | [Cl-].[Na+] [NaCl] | negligible effect |  |  |  |  |  |  | 
2 | O=[N+]([O-])[O-].[Ag+] [Ag(I), AgNO3] |  | retaining the inhibition | 0.05 | ~0.002 | about 35% |  |  | 
3 | Cr(VI) |  | retaining the inhibition | 1.49 | ~0.150 |  |  |  | 
4 | [Ni+2] [Ni(II)] |  | completely removed the inhibition | 1.80 | ~0.230 |  |  |  | 
5 | [Cl][Hg][Cl] [Hg(II), HgCl2] |  | completely removed the inhibition | 0.03 |  | 42% | ~0.01 | 6.92 | 
6 | [Pb+2] [Pb(II)] |  | completely removed the inhibition | 1.40 | ~0.140 |  |  |  | 
7 | O=S(=O)([O-])[O-].[Cu+2] [Cu(II), CuSO4] |  | completely removed the inhibition | 0.70 | ~0.020 |  |  |  | 23
8 | [Cl][Cd][Cl] [Cd(II), CdCl2] |  | completely removed the inhibition | 1.14 | ~0.020 |  |  |  | 
